Patent US8648066B2 (Exelixis, Inc., priority 2009, dated 2014)

Target: mTOR/GbL/Raptor (mTORC1) (Homo sapiens, UniProt P42345)
Experiment: mTOR/GbL/Raptor (mTORC1) ELISA assay
Format: biochemical
Conditions: phosphorylation of 4E-BP1; 0.2 nM mTORC1, 10 μM ATP; read-out: IC50 in this assay (mTORC1 ELISA)
In short: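 ELISA read-out: phospho-4E-BP1 captured on Ni-chelate plates and detected with anti-phospho antibody plus HRP-anti-IgG luminescence. The kinase step ran 120 min at ambient temperature with 0.2 nM human mTORC1, 10 µM ATP, 50 nM His-4E-BP1, 10 mM MnCl2, pH 7.2 HEPES.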

| Structure (SMILES) | IC50 [µM] |
| --- | --- |
| COCc1nc2ccc(-c3ccc4c(c3)CN(c3ccnc5ccccc35)CCO4)cc2[nH]1 [Example 196, 7-{2-[(methyloxy)methyl]-1H-benzimidazol-6-yl}-4-quinolin-4-yl-2,3,4,5-tetrahydro-1,4-benzoxazepine] | ≥ 2 |
| Cc1ncnc(N2CCOc3ccc(-c4cnc(N)nc4)cc3C2)c1Cc1ccc(F)cc1 [Example 153, 5-(4-{5-[(4-fluorophenyl)methyl]-6-methylpyrimidin-4-yl}-2,3,4,5-tetrahydro-1,4-benzoxazepin-7-yl)pyrimidin-2-amine] | ≤ 0.01 |
| Cc1nc2ccc(-c3ccc4c(c3)CN(c3ncnc(C)c3Cc3ccc(F)c(F)c3)CCO4)cc2[nH]1 [Example 89, 4-{5-[(3,4-difluorophenyl)methyl]-6-methylpyrimidin-4-yl}-7-(2-methyl-1H-benzimidazol-6-yl)-2,3,4,5-tetrahydro-1,4-benzoxazepine] | ≤ 0.01 |
| CC1(C)CCc2ncnc(N3CCOc4ccc(-c5cnc(N)c(S(=O)(=O)N6CCOCC6)c5)cc4C3)c2C1 [Example 513, 5-[4-(6,6-dimethyl-5,6,7,8-tetrahydroquinazolin-4-yl)-2,3,4,5-tetrahydro-1,4-benzoxazepin-7-yl]-3-(morpholin-4-ylsulfonyl)pyridin-2-amine] | 0.05 to 0.25 |
| CCC(N)CNS(=O)(=O)c1cc(-c2ccc3c(c2)CN(c2ncnc4c2CC(C)(C)CC4)CCO3)cnc1N (stereo not drawn) [Example 408, 2-amino-N-(2-aminobutyl)-5-[4-(6,6-dimethyl-5,6,7,8-tetrahydroquinazolin-4-yl)-2,3,4,5-tetrahydro-1,4-benzoxazepin-7-yl]pyridine-3-sulfonamide] | 0.01 to 0.05 |
| CN1CC[C@@H](NS(=O)(=O)c2cc(-c3ccc4c(c3)CN(c3ncnc5c3CC(C)(C)CC5)CCO4)cnc2N)C1 [Example 385, 2-amino-5-[4-(6,6-dimethyl-5,6,7,8-tetrahydroquinazolin-4-yl)-2,3,4,5-tetrahydro-1,4-benzoxazepin-7-yl]-N-[(3R)-1-methylpyrrolidin-3-yl]pyridine-3-sulfonamide] | 0.05 to 0.25 |
| Cc1nc2ccc(-c3ccc4c(c3)CN(c3ncncc3C)CCO4)cc2[nH]1 [Example 44, 7-(2-methyl-1H-benzimidazol-6-yl)-4-(5-methylpyrimidin-4-yl)-2,3,4,5-tetrahydro-1,4-benzoxazepine] | 1 to 2 |
| COc1cc2nccc(N3CCOc4ccc(-c5ccc6nc(N)[nH]c6c5)cc4C3)c2cc1OC [Example 191, 6-{4-[6,7-bis(methyloxy)quinolin-4-yl]-2,3,4,5-tetrahydro-1,4-benzoxazepin-7-yl}-1H-benzimidazol-2-amine] | 0.25 to 1 |
| Cc1ncnc(N2CCOc3ccc(-c4ccc(N)nn4)cc3C2)c1Cc1ccc(F)cc1 [Example 149, 6-(4-{5-[(4-fluorophenyl)methyl]-6-methylpyrimidin-4-yl}-2,3,4,5-tetrahydro-1,4-benzoxazepin-7-yl)pyridazin-3-amine] | 0.05 to 0.25 |
| CC1(C)CCc2ncnc(N3CCOc4ccc(-c5cnc(N)c(S(=O)(=O)N6CC(F)(F)C6)c5)cc4C3)c2C1 [Example 438, 3-[(3,3-difluoroazetidin-1-yl)sulfonyl]-5-[4-(6,6-dimethyl-5,6,7,8-tetrahydroquinazolin-4-yl)-2,3,4,5-tetrahydro-1,4-benzoxazepin-7-yl]pyridin-2-amine] | 0.05 to 0.25 |
| CC1(C)CCc2ncnc(N3CCOc4ccc(-c5cnc(N)c(S(N)(=O)=O)c5)cc4C3)c2C1 [Example 399, 2-amino-5-[4-(6,6-dimethyl-5,6,7,8-tetrahydroquinazolin-4-yl)-2,3,4,5-tetrahydro-1,4-benzoxazepin-7-yl]pyridine-3-sulfonamide] | ≤ 0.01 |
| COc1ccc2c(N3CCOc4ccc(-c5cccc(C(=O)O)c5)cc4C3)nc(C)nc2c1 [Example 456, 3-{4-[2-methyl-7-(methyloxy)quinazolin-4-yl]-2,3,4,5-tetrahydro-1,4-benzoxazepin-7-yl}benzoic acid] | ≥ 2 |
| CNC(=O)Nc1ccc(-c2ccc3c(c2)CN(c2nc(C)nc4cc(OC)ccc24)CCO3)cc1 [Example 361, 1-methyl-3-(4-{4-[2-methyl-7-(methyloxy)quinazolin-4-yl]-2,3,4,5-tetrahydro-1,4-benzoxazepin-7-yl}phenyl)urea] | ≥ 2 |
| CC1(C)C=Cc2ncnc(N3CCOc4ccc(-c5cnc6nc(C7CC7)[nH]c6c5)cc4C3)c2C1 [Example 545, 7-(2-cyclopropyl-1H-imidazo[4,5-b]pyridin-6-yl)-4-(6,6-dimethyl-5,6-dihydroquinazolin-4-yl)-2,3,4,5-tetrahydro-1,4-benzoxazepine] | ≤ 0.01 |
| CNC(=O)c1ccc(-c2ccc3c(c2)CN(c2ncnc(C)c2Cc2ccc(F)cc2)CCO3)nc1 [Example 155, 6-(4-{5-[(4-fluorophenyl)methyl]-6-methylpyrimidin-4-yl}-2,3,4,5-tetrahydro-1,4-benzoxazepin-7-yl)-N-methylpyridine-3-carboxamide] | 0.25 to 1 |
| CC1(C)CCc2ncnc(N3CCOc4ccc(-c5cnc(N)c(S(=O)(=O)NCC(O)C(F)(F)F)c5)cc4C3)c2C1 (stereo not drawn) [Example 373, 2-amino-5-[4-(6,6-dimethyl-5,6,7,8-tetrahydroquinazolin-4-yl)-2,3,4,5-tetrahydro-1,4-benzoxazepin-7-yl]-N-(3,3,3-trifluoro-2-hydroxypropyl)pyridine-3-sulfonamide] | ≤ 0.01 |
| CNC1CN(S(=O)(=O)c2cc(-c3ccc4c(c3)CN(c3ncnc5c3CC(C)(C)CC5)CCO4)cnc2N)C1 [Example 519, 5-[4-(6,6-dimethyl-5,6,7,8-tetrahydroquinazolin-4-yl)-2,3,4,5-tetrahydro-1,4-benzoxazepin-7-yl]-3-{[3-(methylamino)azetidin-1-yl]sulfonyl}pyridin-2-amine] | 0.01 to 0.05 |
| CC1(C)CCc2ncnc(N3CCOc4ccc(-c5cnc(N)c(S(=O)(=O)N6CC7(CNC7)C6)c5)cc4C3)c2C1 [Example 432, 3-(2,6-diazaspiro[3.3]hept-2-ylsulfonyl)-5-[4-(6,6-dimethyl-5,6,7,8-tetrahydroquinazolin-4-yl)-2,3,4,5-tetrahydro-1,4-benzoxazepin-7-yl]pyridin-2-amine] | 0.01 to 0.05 |
| CC1(C)CCc2ncnc(N3CCOc4ccc(-c5cnc(OCc6ccccc6)c(NS(C)(=O)=O)c5)cc4C3)c2C1 [Example 631, N-{5-[4-(6,6-dimethyl-5,6,7,8-tetrahydroquinazolin-4-yl)-2,3,4,5-tetrahydro-1,4-benzoxazepin-7-yl]-2-[(phenylmethyl)oxy]pyridin-3-yl}methanesulfonamide] | ≥ 2 |
| Cc1nc2c(c(N3CCOc4ccc(-c5cnc(N)c(S(=O)(=O)N[C@@H]6CCN(C)C6)c5)cc4C3)n1)CC(C)(C)CC2 [Example 421, 2-amino-N-[(3R)-1-methylpyrrolidin-3-yl]-5-[4-(2,6,6-trimethyl-5,6,7,8-tetrahydroquinazolin-4-yl)-2,3,4,5-tetrahydro-1,4-benzoxazepin-7-yl]pyridine-3-sulfonamide] | 0.25 to 1 |
| Cc1nc2ccc(-c3ccc4c(c3)CN(c3ncnc(C)c3Cc3ccccc3)CCO4)cc2[nH]1 [Example 55, 7-(2-methyl-1H-benzimidazol-6-yl)-4-[6-methyl-5-(phenylmethyl)pyrimidin-4-yl]-2,3,4,5-tetrahydro-1,4-benzoxazepine] | ≤ 0.01 |
| CC1(C)CCc2ncnc(N3CCOc4ccc(-c5cnc(N)c(S(=O)(=O)NCC(O)CN)c5)cc4C3)c2C1 (stereo not drawn) [Example 412, 2-amino-N-(3-amino-2-hydroxypropyl)-5-[4-(6,6-dimethyl-5,6,7,8-tetrahydroquinazolin-4-yl)-2,3,4,5-tetrahydro-1,4-benzoxazepin-7-yl]pyridine-3-sulfonamide] | 0.01 to 0.05 |
| Cc1nc2ncc(-c3ccc4c(c3)CN(c3ncnc5c3CC(C)(C)CC5)CCO4)cc2[nH]1 [Example 234, 4-(6,6-dimethyl-5,6,7,8-tetrahydroquinazolin-4-yl)-7-(2-methyl-1H-imidazo[4,5-b]pyridin-6-yl)-2,3,4,5-tetrahydro-1,4-benzoxazepine] | ≤ 0.01 |
| COc1ccc2c(N3CCOc4ccc(-c5cnc6sc(N)nc6c5)cc4C3)nc(C)nc2c1 [Example 661, 6-{4-[2-methyl-7-(methyloxy)quinazolin-4-yl]-2,3,4,5-tetrahydro-1,4-benzoxazepin-7-yl}[1,3]thiazolo[5,4-b]pyridin-2-amine] | 0.25 to 1 |
| Cc1nc2ccc(-c3ccc4c(c3)CN(c3ncnc5sccc35)CCO4)cc2[nH]1 [Example 45, 7-(2-methyl-1H-benzimidazol-6-yl)-4-thieno[2,3-d]pyrimidin-4-yl-2,3,4,5-tetrahydro-1,4-benzoxazepine] | 0.25 to 1 |
| Cc1nc2cc(-c3ccc4c(c3)CN(c3nc(CN(C)C)nc(C)c3Cc3ccc(F)cc3)CCO4)cnc2[nH]1 [Example 348, 1-{5-[(4-fluorophenyl)methyl]-4-methyl-6-[7-(2-methyl-3H-imidazo[4,5-b]pyridin-6-yl)-2,3-dihydro-1,4-benzoxazepin-4(5H)-yl]pyrimidin-2-yl}-N,N-dimethylmethanamine] | ≤ 0.01 |
| CC[C@H]1CCc2c(nc(C)nc2N2CCOc3ccc(-c4cnc5nc(NC(=O)OC)[nH]c5c4)cc3C2)C1 [Example 577, methyl (6-{4-[(7S)-7-ethyl-2-methyl-5,6,7,8-tetrahydroquinazolin-4-yl]-2,3,4,5-tetrahydro-1,4-benzoxazepin-7-yl}-1H-imidazo[4,5-b]pyridin-2-yl)carbamate] | 0.01 to 0.05 |
